Source: patent US8754079B2, “Cycloalkyl containing thienopyrimidines for pharmaceutical compositions” (Boehringer Ingelheim International GmbH, priority 2010, dated 2014)

Molecular target: T1, MNK2 (Homo sapiens, UniProt Q9HBH9)
T1 construct: the open reading frames of human Mnk1 and Mnk2a were amplified from cDNA; made in house; host or cells: E. coli BL21
Assay: Mnk2a in vitro kinase assay (indirect fluorescence polarization)
Format: biochemical
Settings: pre-activated GST-Mnk2a 2.5 nM, 20 μM ATP, 30 μM substrate peptide
How it was run: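 Human GST-Mnk2a was expressed in E. coli and activated in vitro with 150 nM pre-activated ERK2 and 50 μM ATP in HEPES pH 7.4/MgCl2 buffer (45 min, 30 °C). Activity on an eIF4E Ser209-derived 12mer peptide was read by competitive fluorescence polarization with a phospho-specific antibody.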

T1 sequence (Q9HBH9 whole entry): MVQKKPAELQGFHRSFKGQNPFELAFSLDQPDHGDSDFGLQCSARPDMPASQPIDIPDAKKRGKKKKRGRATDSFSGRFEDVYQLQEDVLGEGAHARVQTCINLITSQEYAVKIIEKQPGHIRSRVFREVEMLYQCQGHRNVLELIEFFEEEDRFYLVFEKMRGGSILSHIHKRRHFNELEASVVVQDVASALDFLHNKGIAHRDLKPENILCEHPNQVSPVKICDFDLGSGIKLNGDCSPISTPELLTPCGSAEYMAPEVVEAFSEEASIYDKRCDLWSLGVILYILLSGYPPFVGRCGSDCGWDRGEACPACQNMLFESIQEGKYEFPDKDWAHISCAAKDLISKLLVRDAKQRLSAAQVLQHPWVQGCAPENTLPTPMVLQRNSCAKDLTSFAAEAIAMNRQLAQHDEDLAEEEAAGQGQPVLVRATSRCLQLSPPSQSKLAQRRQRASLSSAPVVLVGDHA

Structure (SMILES) | IC50 [nM]
Cc1c(C(N)=O)sc2ncnc(Nc3ccc(F)cc3O[C@H]3CC[C@H](O)CC3)c12 [Example 158, 4-[4-Fluoro-2-(trans-4-hydroxy-cyclohexyloxy)-phenylamino]-5-methyl-thieno[2,3-d]pyrimidine-6-carboxylic acid amide] | 4
Cc1c(C(=O)N[C@H]2C[C@@H]2N)sc2ncnc(Nc3ccc(F)cc3O[C@H]3CC[C@H](O)CC3)c12 [Example 159] | 16
Cc1c(C(=O)NCCCCO)sc2ncnc(Nc3ccc(F)cc3O[C@H]3CC[C@H](O)CC3)c12 [Example 161] | 17
Cc1c(C(=O)NCc2cnco2)sc2ncnc(Nc3ccc(F)cc3O[C@H]3CC[C@H](O)CC3)c12 [Example 162] | 10
Cc1c(C(=O)NCC#CCN(C)C)sc2ncnc(Nc3ccc(F)cc3O[C@H]3CC[C@H](O)CC3)c12 [Example 165] | 8
Cc1c(C(=O)NCC2CNCCO2)sc2ncnc(Nc3ccc(F)cc3O[C@H]3CC[C@H](O)CC3)c12 (some centres unmarked) [Example 166] | 11
Cc1c(C(=O)NCC(C)O)sc2ncnc(Nc3ccc(F)cc3O[C@H]3CC[C@H](O)CC3)c12 (some centres unmarked) [Example 171] | 43
CCNC(=O)c1sc2ncnc(Nc3ccc(F)cc3O[C@H]3CC[C@H](O)CC3)c2c1C [Example 173] | 14
CO[C@H]1CC[C@H](Oc2cc(F)ccc2Nc2ncnc3sc(C(N)=O)c(C)c23)CC1 [Example 175, 4-[4-Fluoro-2-(trans-4-methoxy-cyclohexyloxy)-phenylamino]-5-methyl-thieno[2,3-d]pyrimidine-6-carboxylic acid amide] | 9
CO[C@H]1CC[C@H](Oc2cc(F)ccc2Nc2ncnc3sc(C(=O)NCC#CCN)c(C)c23)CC1 [Example 178] | 16
CO[C@H]1CC[C@H](Oc2cc(F)ccc2Nc2ncnc3sc(C(=O)NCC4COCCN4)c(C)c23)CC1 (some centres unmarked) [Example 179] | 30
CO[C@H]1CC[C@H](Oc2cc(F)ccc2Nc2ncnc3sc(C(=O)NCC4CNCCO4)c(C)c23)CC1 (some centres unmarked) [Example 180] | 16
CO[C@H]1CC[C@H](Oc2cc(F)ccc2Nc2ncnc3sc(C(=O)N[C@H]4CC[C@H](O)CC4)c(C)c23)CC1 [Example 183] | 23
CO[C@H]1CC[C@H](Oc2cc(F)ccc2Nc2ncnc3sc(C(=O)NCC#CCN(C)C)c(C)c23)CC1 [Example 187] | 21
CO[C@H]1CC[C@H](Oc2cc(F)ccc2Nc2ncnc3sc(C(=O)N[C@H]4C[C@@H]4N)c(C)c23)CC1 [Example 189] | 28
CO[C@H]1CC[C@H](Oc2cc(F)ccc2Nc2ncnc3sc(C(=O)NCCCN4CCOCC4)c(C)c23)CC1 [Example 192, 4-[4-Fluoro-2-(trans-4-methoxy-cyclohexyloxy)-phenylamino]-5-methyl-thieno[2,3-d]pyrimidine-6-carboxylic acid (3-morpholin-4-yl-propyl)-amide] | 21
CO[C@H]1CC[C@H](Oc2cc(F)ccc2Nc2ncnc3sc(C(=O)NCCCO)c(C)c23)CC1 [Example 195] | 19
CO[C@H]1CC[C@H](Oc2cc(F)ccc2Nc2ncnc3sc(C(=O)NCCO)c(C)c23)CC1 [Example 196] | 17
CO[C@H]1CC[C@H](Oc2cc(F)ccc2Nc2ncnc3sc(C(=O)NCCCn4ccnc4)c(C)c23)CC1 [Example 197] | 1
CO[C@H]1CC[C@H](Oc2cc(F)ccc2Nc2ncnc3sc(C(=O)NCC4CN(C)CCO4)c(C)c23)CC1 (some centres unmarked) [Example 199] | 15
CO[C@H]1CC[C@H](Oc2cc(F)ccc2Nc2ncnc3sc(C(=O)NCC4CCCNC4)c(C)c23)CC1 (stereo partly drawn) [Example 200, 4-[4-Fluoro-2-(trans-4-methoxy-cyclohexyloxy)-phenylamino]-5-methyl-thieno[2,3-d]pyrimidine-6-carboxylic acid (piperidin-3-ylmethyl)-amide] | 17
CO[C@H]1CC[C@@H](Oc2cc(F)ccc2Nc2ncnc3sc(C(=O)NCCCN(C)C)c(C)c23)CC1 [Example 202, 4-[4-Fluoro-2-(cis-4-methoxy-cyclohexyloxy)-phenylamino]-5-methyl-thieno[2,3-d]pyrimidine-6-carboxylic acid (3-dimethylamino-propyl)-amide] | 46
Cc1c(C(N)=O)sc2ncnc(Nc3cccnc3O[C@H]3CC[C@@H](O)CC3)c12 [Example 205, 4-[2-(cis-4-Hydroxy-cyclohexyloxy)-pyridin-3-ylamino]-5-methyl-thieno[2,3-d]pyrimidine-6-carboxylic acid amide] | 10

The remaining compounds from weak to strong by IC50, led by results:

IC50 [nM] | Structure (SMILES)
62 | COCCNC(=O)c1sc2ncnc(Nc3ccc(F)cc3O[C@H]3CC[C@@H](OC)CC3)c2c1C [Example 203]
43 | CO[C@H]1CC[C@H](Oc2cc(F)ccc2Nc2ncnc3sc(C(=O)NCCN(C)C)c(C)c23)CC1 [Example 193]
38 | CO[C@H]1CC[C@H](Oc2cc(F)ccc2Nc2ncnc3sc(C(=O)NCC(C)O)c(C)c23)CC1 (some centres unmarked) [Example 184]
30 | CO[C@H]1CC[C@H](Oc2cc(F)ccc2Nc2ncnc3sc(C(=O)NCCN4CCCCC4)c(C)c23)CC1 [Example 190]
21 | COC1CCC(Oc2cc(F)ccc2Nc2ncnc3sc(C(=O)NCCCCO)c(C)c23)CC1 (centres unmarked) [Example 181]
20 | Cc1c(C(=O)N[C@H]2CC[C@H](O)CC2)sc2ncnc(Nc3ccc(F)cc3O[C@H]3CC[C@H](O)CC3)c12 [Example 168]
20 | CO[C@H]1CC[C@H](Oc2cc(F)ccc2Nc2ncnc3sc(C(=O)NCc4cn(C)cn4)c(C)c23)CC1 [Example 186]
20 | CNC(=O)CNC(=O)c1sc2ncnc(Nc3ccc(F)cc3O[C@H]3CC[C@H](OC)CC3)c2c1C [Example 188]
19 | Cc1c(C(=O)NCCN2CCCCC2)sc2ncnc(Nc3ccc(F)cc3O[C@H]3CC[C@H](O)CC3)c12 [Example 170]
17 | CO[C@H]1CC[C@H](Oc2cc(F)ccc2Nc2ncnc3sc(C(=O)NCc4cnco4)c(C)c23)CC1 [Example 185]
16 | CNC(=O)CNC(=O)c1sc2ncnc(Nc3ccc(F)cc3O[C@H]3CC[C@H](O)CC3)c2c1C [Example 164]
16 | Cc1c(C(=O)NCCCO)sc2ncnc(Nc3ccc(F)cc3O[C@H]3CC[C@H](O)CC3)c12 [Example 172]
16 | CO[C@H]1CC[C@H](Oc2cc(F)ccc2Nc2ncnc3sc(C(=O)NCCCN4CCC(O)C4)c(C)c23)CC1 (stereo partly drawn) [Example 201, 4-[4-Fluoro-2-(trans-4-methoxy-cyclohexyloxy)-phenylamino]-5-methyl-thieno[2,3-d]pyrimidine-6-carboxylic acid [3-(3-hydroxy-pyrrolidin-1-yl)-propyl]-amide]
15 | CO[C@H]1CC[C@H](Oc2cc(F)ccc2Nc2ncnc3sc(C(=O)NCC#N)c(C)c23)CC1 [Example 182]
10 | Cc1c(C(=O)NCc2cn(C)cn2)sc2ncnc(Nc3ccc(F)cc3O[C@H]3CC[C@H](O)CC3)c12 [Example 174]
9 | Cc1c(C(=O)NCC#N)sc2ncnc(Nc3ccc(F)cc3O[C@H]3CC[C@H](O)CC3)c12 [Example 163]
6 | Cc1c(C(=O)NCC#CCN)sc2ncnc(Nc3ccc(F)cc3O[C@H]3CC[C@H](O)CC3)c12 [Example 160]
5 | Cc1c(C(N)=O)sc2ncnc(Nc3cccnc3O[C@H]3CC[C@H](O)CC3)c12 [Example 204, 4-[2-(trans-4-Hydroxy-cyclohexyloxy)-pyridin-3-ylamino]-5-methyl-thieno[2,3-d]pyrimidine-6-carboxylic acid amide]
